Results on four compounds are retold here after US20050255469A1, “Human 5-ht7 receptor promoter sequence” (priority 2002, published 2005).

One test relates to 5-HT7 receptor promoter. The experiment in a line: transient transfection luciferase reporter assay with 5-HT7 promoter constructs in HEK293T cells, barbiturate treatment. Format: cell-based, human. How it is done: HEK293T cells were maintained in Dulbecco's modified Eagle's medium supplemented with 100 units/ml penicillin, 100 μg/ml streptomycin, and 10% newborn calf serum. These cells were maintained at 37° C. in a humidified atmosphere of 5% CO2.
10^5 cells/cm^2 in 24-well dishes were transfected with 150 ng promoter plasmid and 50 ng neogal (served as an internal control), using the standard calcium phosphate coprecipitation method. 24 hours after transfection, cells were washed once with PBSA and lysed in 150 μl 100 mM potassium phosphate (pH 7.8), 0.2% Triton X-100. The samples were analyzed for luciferase activity as described previously (Vanden Berghe et al., 1998). β-Galactosidase activity was measured using Galacto Star (Tropix) as substrate. For the barbiturate experiments, treatment with different barbiturates started 24 hours after transfection of the cells
According to MatInspector, a putative BARBIE (Barbiturate Inducible Element) is present in the promoter region of the 5-HT7 receptor. To investigate the possible influence of barbiturates on 5-HT7 promoter activity, we transiently transfected HEK293T cells with the different promoter constructs and treated the transfected cells with barbiturates for 24 h (FIG. 6a). […] The reduction varied from 30-50% depending on the promoter construct used and the type of barbiturate.
(In a reporter assay the amount or activity of a reporter protein is the signal.)

For a further test, the system named is 5-HT7 promoter. The test can be described thus: luciferase reporter assay in NS20Y cells transiently transfected with the F1000 construct, mithramycin A treatment. As to conditions: increasing concentrations, 24 h. Format: cell-based, mouse. As for the experimental part: N2A and NS20Y cells were maintained in Dulbecco's modified Eagle's medium supplemented with 100 units/ml penicillin, 100 μg/ml streptomycin, and 10% foetal calf serum. These cells were maintained at 37° C. in a humidified atmosphere of 5% CO2. 4×10^5 cells in 6 well dishes were transfected with 500-1000 ng promoter construct and 300 ng neogal (served as internal control), using JetPEI a cationic polymer transfection reagent (Qbiogene).
Cells were treated with different concentrations of Mithramycin A for 24 hours.
The significance of binding by Sp1 to the 5-HT7 promoter for transcriptional activity was confirmed in experiments with mithramycin A, a compound that interferes with Sp1 binding to GC boxes in DNA.

A further test has as its system 5-HT7 mRNA. The test can be described thus: RT-PCR analysis of endogenous 5-HT7 mRNA levels in 1321-N1 cells. In kind it is cell-based. The following applies: 1321-N1 human astrocytoma cells, different concentrations, 24 h. As for the experimental part: (§1) 132-1N1 human astrocytoma cells were seeded into 58 cm^2 plates; 12 hours after seeding the cells were cultured with either medium alone (−) or medium containing 10 nM, 100 nM, 500 nM, 1 μM, 2 μM or 5 μM Mithramycin A (Serva). Total RNA was isolated using a RNeasy, total RNA isolation kit (Qiagen). cDNA was synthesized using AMV reverse transcriptase (Promega). The cDNA was then amplified by PCR in a total volume of 30 μl containing 10 pmol of each primer, 200 μM dNTP, Taq DNA polymerase buffer, 2,5 units of Taq and 5 μl of cDNA. PCR conditions were 94° C., 30 sec; 56° C., 1 min; 72° C., 2 min; for 35 cycles. PCR products were analyzed by electrophoresis through 6% polyacrylamide gel.

The test system of another test is GAPDH. The experiment in a line: RT-PCR analysis of GAPDH mRNA levels in 1321-N1 cells. The following applies: different concentrations, 24 h. In kind it is cell-based, human. As for the experimental part: as §1
Test [1] relates to circadian rhythm of hamsters. As to conditions: cited from earlier work.
For the next test, the target named is 5-HT7 receptor (Homo sapiens, UniProt P34969). As to conditions: cited from earlier work.
Sequence of 5-HT7 receptor (P34969 whole entry): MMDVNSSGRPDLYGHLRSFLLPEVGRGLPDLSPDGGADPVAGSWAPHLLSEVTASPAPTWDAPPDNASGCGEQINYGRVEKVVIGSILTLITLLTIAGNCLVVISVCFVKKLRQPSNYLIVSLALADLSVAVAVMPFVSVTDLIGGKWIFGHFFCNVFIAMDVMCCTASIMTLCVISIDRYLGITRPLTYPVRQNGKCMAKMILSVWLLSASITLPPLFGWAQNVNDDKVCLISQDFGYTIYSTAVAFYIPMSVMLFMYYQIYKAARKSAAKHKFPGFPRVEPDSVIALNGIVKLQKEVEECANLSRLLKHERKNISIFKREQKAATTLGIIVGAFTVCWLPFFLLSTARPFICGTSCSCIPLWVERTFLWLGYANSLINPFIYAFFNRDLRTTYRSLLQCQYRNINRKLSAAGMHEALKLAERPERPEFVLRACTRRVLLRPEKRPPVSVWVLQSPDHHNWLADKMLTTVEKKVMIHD
[2] abbreviates: time course, HEK293T cells, 2000luc+ and 1000luc+, 1.5 mM.

“Also recorded” adds a separate entry of the source. Some results are limits rather than exact numbers.

In the case of `CCC1(c2ccccc2)C(=O)NC(=O)NC1=O` [Phenobarbital], in the test with 5-HT7 receptor promoter (setting [2]), the “time at which repressive effect reached a maximum” value was 16 h and the “time at which repressive effect was already present” value is not above 6 h.
For the compound mithramycin A, in the test with 5-HT7 promoter, the 5-HT7 promoter activity result is “dose-dependent loss of promoter activity; also recorded: inhibits 5-HT7 promoter activity”. The “5-HT7 mRNA levels” value with 5-HT7 mRNA was “significant decrease”. For the same compound, the “levels of GAPDH” value in the test on GAPDH is “unaffected”.
In the case of `CCC1(CCC(C)C)C(=O)NC(=O)NC1=O` [Amobarbital], the “relative potency in repressing promoter activity” value in the test on 5-HT7 receptor promoter (HEK293T cells, 1,5 mM, 24 h, Amobarbital versus Phenobarbital) is “somewhat more potent”. Also, the “effect on 5-HT7 receptor promoter activity” value in the test with 5-HT7 receptor promoter (HEK293T cells, transient transfection, 1.5 mM barbiturate, 24 h) is “repress 5-HT7 receptor promoter activity”.
With `CCCN(CCC)C1CCc2cccc(O)c2C1` (stereo not drawn) [8-OH-DPAT], the “effect on circadian rhythm” value in test [1] is recorded as “shifted the circadian rhythm”. At 5-HT7 receptor, the “affinity for the 5-HT7 receptor” value was “high affinity”.
